According to patent US10669272B2, “Substituted naphthyridinone compounds useful as T cell activators” (BRISTOL-MYERS SQUIBB COMPANY, priority 2018, dated 2020):
Counter-ions that a name gives are not always drawn. Like-named read-outs stand apart in the source and are kept apart here.

Tests used:
Human venous whole blood = assay: Human whole blood IFN-γ assay; format: cell-based; settings: human whole blood, read-out: INFg Whole Blood Normalized Agonist EC50;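 also: blood from healthy donors exposed to compound for 1 h before stimulation with anti-CD3 and anti-CD28 at 1 µg/mL each, IFN-γ quantified in supernatant by AlphaLISA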
human DGKα = biological target: T1, human DGKα (Homo sapiens, UniProt P23743); assay: DGKα LIPGLO assay (extruded liposome substrate), in vitro DGK inhibition; format: biochemical; settings: read-out: DGKa LIPGLO IC50
T1 construct: TVMV protease cleavage site (C); Hexa-His (C); made in house; host or cells: Sf9 insect cells (baculovirus, Bac-to-Bac)

human DGKζ = biological target: T2, human DGKζ (Homo sapiens, UniProt Q13574); assay: DGKζ LIPGLO assay (extruded liposome substrate), in vitro DGK inhibition; format: biochemical; settings: read-out: DGKz LIPGLO IC50
T2 construct: TVMV protease cleavage site (C); Hexa-His (C); made in house; host or cells: Sf9 insect cells (baculovirus, Bac-to-Bac)

[1] = normalized to 3 μM reference compound with anti-CD3 plus anti-CD28 as 100% activation
[2] = anti-CD3 plus anti-CD28, 24 hours, 3 μM reference compound = 100% activation
[3] = Homo sapiens, 24 h, normalized to 3 μM reference compound with anti-CD3 plus anti-CD28 as 100% activation
[4] = Homo sapiens, 24 h, anti-CD3 plus anti-CD28, 24 hours, 3 μM reference compound = 100% activation

T2 sequence (Q13574 with tags, fused parts or gaps isoform Q13574-4): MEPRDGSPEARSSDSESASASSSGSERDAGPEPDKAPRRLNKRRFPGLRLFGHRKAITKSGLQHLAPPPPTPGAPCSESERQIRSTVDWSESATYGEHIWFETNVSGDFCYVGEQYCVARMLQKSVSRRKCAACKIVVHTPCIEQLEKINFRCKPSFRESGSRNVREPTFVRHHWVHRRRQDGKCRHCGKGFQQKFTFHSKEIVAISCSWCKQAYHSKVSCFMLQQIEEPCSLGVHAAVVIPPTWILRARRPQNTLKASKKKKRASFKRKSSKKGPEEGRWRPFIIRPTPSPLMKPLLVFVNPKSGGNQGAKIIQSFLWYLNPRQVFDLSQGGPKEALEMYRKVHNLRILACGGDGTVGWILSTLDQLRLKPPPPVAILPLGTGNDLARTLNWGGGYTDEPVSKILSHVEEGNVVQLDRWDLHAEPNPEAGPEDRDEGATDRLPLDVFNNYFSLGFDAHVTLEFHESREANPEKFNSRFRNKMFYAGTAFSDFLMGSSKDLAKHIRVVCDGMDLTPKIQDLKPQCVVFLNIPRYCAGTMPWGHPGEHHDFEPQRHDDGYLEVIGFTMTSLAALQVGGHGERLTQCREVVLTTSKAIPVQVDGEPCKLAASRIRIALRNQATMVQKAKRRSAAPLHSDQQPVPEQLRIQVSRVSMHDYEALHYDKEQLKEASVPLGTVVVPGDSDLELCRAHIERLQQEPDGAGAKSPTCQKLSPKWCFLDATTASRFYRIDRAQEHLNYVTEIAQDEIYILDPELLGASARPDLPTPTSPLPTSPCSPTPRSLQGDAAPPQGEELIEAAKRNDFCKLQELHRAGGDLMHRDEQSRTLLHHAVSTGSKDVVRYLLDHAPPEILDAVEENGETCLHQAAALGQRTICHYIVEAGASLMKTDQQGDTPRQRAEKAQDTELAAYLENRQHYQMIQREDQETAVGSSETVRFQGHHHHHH
T1 sequence (P23743 with tags, fused parts or gaps): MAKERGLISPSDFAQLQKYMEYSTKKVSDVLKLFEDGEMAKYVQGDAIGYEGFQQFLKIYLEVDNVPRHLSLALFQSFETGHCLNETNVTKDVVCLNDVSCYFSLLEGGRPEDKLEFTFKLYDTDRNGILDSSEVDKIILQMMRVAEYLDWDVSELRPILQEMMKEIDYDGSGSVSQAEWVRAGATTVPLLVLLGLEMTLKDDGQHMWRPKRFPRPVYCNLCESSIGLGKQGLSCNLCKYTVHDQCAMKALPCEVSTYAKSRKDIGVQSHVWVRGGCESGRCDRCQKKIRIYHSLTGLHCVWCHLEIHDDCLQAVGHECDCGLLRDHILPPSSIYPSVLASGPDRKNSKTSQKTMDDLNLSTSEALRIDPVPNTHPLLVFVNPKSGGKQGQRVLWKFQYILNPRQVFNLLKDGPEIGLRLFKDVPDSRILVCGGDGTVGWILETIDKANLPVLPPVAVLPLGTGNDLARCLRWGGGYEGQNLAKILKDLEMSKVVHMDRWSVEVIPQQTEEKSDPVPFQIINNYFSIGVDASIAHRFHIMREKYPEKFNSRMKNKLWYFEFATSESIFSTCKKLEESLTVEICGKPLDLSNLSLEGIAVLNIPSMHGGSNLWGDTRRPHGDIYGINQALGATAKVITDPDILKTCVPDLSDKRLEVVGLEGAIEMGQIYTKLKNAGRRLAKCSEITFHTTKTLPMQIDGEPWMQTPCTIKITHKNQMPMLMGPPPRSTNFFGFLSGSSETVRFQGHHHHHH

| IC50 (human DGKα; liposome (LIPGLO) assay) | IC50 (human DGKζ; liposome (LIPGLO) assay) | IC50 (human DGKα; DGKα liposome (LIPGLO) assay) | IC50 (human DGKζ; DGKζ liposome (LIPGLO) assay) | SMILES | EC50 (Human venous whole blood; [1]) | EC50 (Human venous whole blood; [2]) | EC50 (Human venous whole blood; [3]) | EC50 (Human venous whole blood; [4]) |
| --- | --- | --- | --- | --- | --- | --- | --- | --- |
| 1400 nM | 2800 nM |  |  | CCC(c1ccc(OC(F)(F)F)cc1F)N1C[C@H](CC)N(c2cc(=O)n(C)c3ccc(C#N)nc23)C[C@H]1C (single isomer, unassigned) [Example 1378] | 9500 nM |  |  |  |
|  |  | 2700 nM | 6500 nM | C[C@@H]1CN(c2c(C#N)c(=O)n(C)c3ccc(C#N)nc23)[C@@H](C)CN1C(c1ccc(F)cc1)c1ncccc1F (single isomer, unassigned) [Example 821] |  | 3400 nM |  |  |
| 240 nM | 240 nM |  |  | C[C@@H]1CN(c2cc(=O)n(C)c3ccc(C#N)nc23)[C@@H](C)CN1C(c1ccc(F)cc1)c1cccc(C(F)F)n1 (single isomer, unassigned) [Example 696] | 420 nM |  |  |  |
| 650 nM | 3500 nM |  |  | CC[C@H]1CN(Cc2cc(F)c(F)c(F)c2)[C@H](C)CN1c1cc(=O)n(C)c2ccc(C#N)nc12 [Example 1149] |  |  | 510 nM |  |
| 290 nM | 4200 nM |  |  | C[C@@H]1CN(c2cc(=O)n(C)c3ccc(C#N)nc23)[C@@H](C)CN1Cc1cc(C#N)cs1 [Example 1422, 8-((2S,5R)-4-((4-cyanothiophen-2-yl)methyl)-2,5-dimethylpiperazin-1-yl)-5-methyl-6-oxo-5,6-dihydro-1,5-naphthyridine-2-carbonitrile] |  |  | 6900 nM |  |
|  |  | 860 nM | 75 nM | C[C@@H]1CN(c2cc(=O)n(C)c3ccc(C#N)nc23)[C@@H](C)CN1C(c1ccc(OC(F)(F)F)cc1)c1nc(C2CC2)no1 (single isomer, unassigned) [Example 758] |  |  |  | 300 nM |
| 16 nM | 110 nM |  |  | CC(c1cccc(C(F)F)n1)N1C[C@H](C)N(c2cc(=O)n(C)c3ccc(C#N)nc23)C[C@H]1C (stereo partly drawn) [Example 1222] |  |  | 520 nM |  |
| 2600 nM | 2700 nM |  |  | C[C@@H]1CN(c2cc(=O)n(C)c3ccc(C#N)nc23)[C@@H](C)CN1C(c1ccc(F)cc1)c1nc(C2CN(C)C2)no1 (single isomer, unassigned) [Example 1298] |  |  | 13000 nM |  |
| 260 nM | 1500 nM |  |  | CC[C@H]1CN(C(C)c2ccc(C(F)(F)F)cc2)[C@H](C)CN1c1cc(=O)n(C)c2ccc(C#N)nc12 (single isomer, unassigned) [Example 1144] | 250 nM |  |  |  |
|  |  | 170 nM | 1400 nM | Cc1ccc(C(c2ccc(F)cc2)N2CCN(c3c(C#N)c(=O)n(C)c4ccc(C#N)nc34)C[C@H]2C)nc1 (single isomer, unassigned) [Example 904] |  |  |  | 520 nM |
|  |  | 6400 nM | 110000 nM | C[C@@H]1CN(c2c(C#N)c(=O)n(C)c3ccc(C#N)nc23)CCN1Cc1ccc(-c2ccccc2)cc1 [Example 994] |  |  |  | 20000 nM |
| 1700 nM | 400 nM |  |  | C[C@@H]1CN(c2cc(=O)n(C)c3ccc(C#N)nc23)[C@@H](C)CN1C(c1ccc(F)cc1)c1cnn2ccccc12 (single isomer, unassigned) [Example 698] |  |  | 1000 nM |  |
|  |  | 11000 nM | 8400 nM | Cc1ccc(C(c2ncccc2F)N2CCN(c3c(C#N)c(=O)n(C)c4ccc(C#N)nc34)C[C@H]2C)cc1 (single isomer, unassigned) [Example 890] |  |  |  | 6600 nM |
|  |  | 240000 nM | 23000 nM | CCc1ccccc1C(c1ccc(F)cc1)N1C[C@H](C)N(c2c(C#N)c(=O)n(C)c3ccc(C#N)nc23)C[C@H]1C (single isomer, unassigned) [Example 810] |  | 20000 nM |  |  |
|  |  | 2300 nM | 2900 nM | C[C@@H]1CN(c2c(C#N)c(=O)n(C)c3ccc(C#N)nc23)[C@@H](C)CN1C(c1ccc(Cl)cc1)c1ncccc1F (single isomer, unassigned) [Example 819] |  |  |  | 2200 nM |
|  |  | 400 nM | 160 nM | CCc1noc(C(c2ccc(F)cc2)N2C[C@H](C)N(c3cc(=O)n(C)c4ccc(C#N)nc34)C[C@H]2C)n1 (single isomer, unassigned) [Example 753] |  | 640 nM |  |  |
|  |  | 58000 nM | 7300 nM | Cc1ccc(C(c2ccc(F)cc2)N2C[C@H](C)N(c3c(C#N)c(=O)n(C)c4ccc(C#N)nc34)C[C@H]2C)cc1 (stereo partly drawn) [Example 818] |  | 4200 nM |  |  |
| 56 nM | 400 nM |  |  | CC[C@@H]1CN(c2cc(=O)n(C)c3ccc(C#N)nc23)[C@@H](C)CN1C(c1ccc(F)cc1)c1ccon1 (single isomer, unassigned) [Example 1114] | 100 nM |  |  |  |
| 2200 nM | 5300 nM |  |  | COCC(F)(F)C(c1ccc(F)cc1)N1C[C@H](C)N(c2cc(=O)n(C)c3ccc(C#N)nc23)C[C@H]1C (single isomer, unassigned) [Example 1313] |  |  | 4800 nM |  |
| 290 nM | 100 nM |  |  | CC(C)c1ccc(C(C)N2C[C@H](C)N(c3cc(=O)n(C)c4ccc(C#N)nc34)C[C@H]2C)cc1 (single isomer, unassigned) [Example 1233] | 380 nM |  |  |  |
| 1300 nM | 1600 nM |  |  | Cc1ccc(C(c2ccc(C#N)cc2)N2C[C@H](C)N(c3cc(=O)n(C)c4ccc(C#N)nc34)C[C@H]2C)cc1 (single isomer, unassigned) [Example 310, TFA salt] |  |  | 1900 nM |  |
| 140 nM | 1600 nM |  |  | C[C@@H]1CN(c2cc(=O)n(C)c3ccc(C#N)nc23)[C@@H](C)CN1C(c1ccc(OC(F)(F)F)cc1)c1ccc(F)cn1 (single isomer, unassigned) [Example 468] | 1300 nM |  |  |  |
|  |  | 1300 nM | 1900 nM | C[C@@H]1CN(c2c(C#N)c(=O)n(C)c3ccc(C#N)nc23)CCN1Cc1ccccc1C(F)(F)F [Example 1014] |  |  |  | 20000 nM |
| 730 nM | 470 nM |  |  | CC[C@@H]1CN(c2cc(=O)n(C)c3ccc(C#N)nc23)[C@@H](C)CN1C(c1cccc(F)c1)c1ccc(F)cn1 (single isomer, unassigned) [Example 1109] |  |  | 920 nM |  |
| 1100 nM | 11000 nM |  |  | CC[C@H]1CN(C(C)c2ccc(F)cc2)[C@H](C)CN1c1cc(=O)n(C)c2ccc(C#N)nc12 (single isomer, unassigned) [Example 1136] | 2300 nM |  |  |  |
|  |  | 490 nM | 28000 nM | CC(c1ccc(OC(F)(F)F)cc1)N1CCN(c2c(C#N)c(=O)n(C)c3ccc(C#N)nc23)C[C@H]1C (single isomer, unassigned) [Example 958] |  |  |  | 20000 nM |
| 170 nM | 880 nM |  |  | C[C@H]1CN(C(c2ccc(F)cc2)c2ccc(C(F)(F)F)cn2)[C@H](CO)CN1c1cc(=O)n(C)c2ccc(C#N)nc12 (single isomer, unassigned) [Example 1389] | 920 nM |  |  |  |
| 22000 nM | 3600 nM |  |  | CCC(c1ccc(OC(C)C)cc1)N1C[C@H](C)N(c2cc(=O)n(C)c3ccc(C#N)nc23)C[C@H]1C (single isomer, unassigned) [Example 1450] | 6800 nM |  |  |  |
| 37 nM | 79 nM |  |  | CC[C@@H]1CN(c2cc(=O)n(C)c3ccc(C#N)nc23)[C@@H](C)CN1C(C)c1ccc(F)cc1 (single isomer, unassigned) [Example 1083] | 75 nM |  |  |  |
| 5600 nM | 14000 nM |  |  | CC(c1nc(C2CC2)no1)N1C[C@H](C)N(c2c(C#N)c(=O)n(C)c3ccc(C#N)nc23)C[C@H]1C (single isomer, unassigned) [Example 1307] |  |  | 20000 nM |  |
